Consider three molecules from publication PMC9587021, “Construction of a bioluminescence-based assay for bitter taste receptors (TAS2Rs)” (Scientific Reports, 2022).

Like-named read-outs stand apart in the source and are kept apart here.

What all share (assay): cell-based
For test [1], the target named is T1, TAS2R3 (Homo sapiens, UniProt Q9NYW6).
T1 sequence (Q9NYW6 1-316): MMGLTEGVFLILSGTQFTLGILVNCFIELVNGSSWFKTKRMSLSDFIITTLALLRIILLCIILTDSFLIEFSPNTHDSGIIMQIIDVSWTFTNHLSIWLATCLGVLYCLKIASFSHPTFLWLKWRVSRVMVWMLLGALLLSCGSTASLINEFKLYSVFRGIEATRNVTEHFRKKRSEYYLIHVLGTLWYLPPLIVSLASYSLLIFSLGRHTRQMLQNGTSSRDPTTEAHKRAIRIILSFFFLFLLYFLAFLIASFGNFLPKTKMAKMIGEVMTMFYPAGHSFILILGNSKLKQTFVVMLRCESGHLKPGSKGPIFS
On the set-up: bioluminescence intracellular calcium release assay, mt-clytin II with coelenterazine, Gα16-gust44 co-expressed. The conditions noted are these: 293AD cells. As for the experimental part: (§1) The bioluminescence-based assay was used to characterize the functional properties of various human TAS2Rs. For each TAS2R, one or more of its cognate agonists were tested against either the AD-293 or 293AD cell line, or both. Both cell lines were used because of their stronger adherent properties, which facilitate media changes on the day of the FLIPR assay. However, because both cell lines are generated differently, some disparities in gene expression capacities due to a myriad of factors could be reasonably expected. Consequently, some TAS2Rs may be well expressed in one cell line but not the other, and the ability of each cell line to express a particular TAS2R needs to be empirically evaluated. […] However, deviations between our experimental and published potency values for some ligands (i.e. TAS2R4: stevioside; TAS2R7: Mg^2+, Mn^2+, Zn^2+) were observed, which could be attributed to the use of a different assay format, readout and processing parameters, use of different cell lines with resultant potential differences in TAS2R expression levels, and quality and methodological differences in ligand preparations. Because potency values could be obtained that were consistent with the literature, or close to the reported minimal effective stimulatory concentration upon further testing of other TAS2R4/7 agonists, the deviation in EC50 values could be largely attributed to qualitative differences in the ligands (Supplementary Fig. S3). Calcium responses induced by the tested cognate agonists reflected specific TAS2R stimulation. […] Poor localization of TAS2Rs to the cell surface in heterologous systems was associated with diminished receptor signaling output and functionality. One of the more commonly used strategies to enhance the density of TAS2Rs at the cell surface involves fusing an N-terminal signal sequence of either the SST3, or Rho receptor to the TAS2R[24]. We adopted this approach, specifically co-expressing SST3-TAS2R with Gα16-gust44 chimera and mt-clytin II, to develop and validate a bioluminescence-based TAS2R intracellular calcium release assay. A strength of the bioluminescence-based TAS2R assay is its capacity to generate greater assay spans than that of fluorescence-based assays, which could be largely attributed to the utilization of mt-clytin II as the calcium reporter. Calcium-binding photoproteins in general are useful reporters for studying calcium-mediated signaling processes. […] Its fast calcium binding and dissociation kinetics render it a suitable indicator to report on swift, transient changes in calcium ion concentrations and study rapid receptor-ligand interactions. Mitochondrial targeting of clytin II was crucial to generating higher luminescence intensity than that of cytosol-localized clytin II, as inositol 1,4,5-triphosphate (IP3)-induced calcium release from the ER subsequent to ligand activation is thought to result in the formation of ER-proximal, calcium-rich microdomains that enabled the closely apposed mitochondria to sense a higher initial rise in calcium concentration than would be experienced by the bulk cytosol.

Test [2] has as its target T2, TAS2R39 (Homo sapiens, UniProt P59534).
T2 sequence (P59534 1-338): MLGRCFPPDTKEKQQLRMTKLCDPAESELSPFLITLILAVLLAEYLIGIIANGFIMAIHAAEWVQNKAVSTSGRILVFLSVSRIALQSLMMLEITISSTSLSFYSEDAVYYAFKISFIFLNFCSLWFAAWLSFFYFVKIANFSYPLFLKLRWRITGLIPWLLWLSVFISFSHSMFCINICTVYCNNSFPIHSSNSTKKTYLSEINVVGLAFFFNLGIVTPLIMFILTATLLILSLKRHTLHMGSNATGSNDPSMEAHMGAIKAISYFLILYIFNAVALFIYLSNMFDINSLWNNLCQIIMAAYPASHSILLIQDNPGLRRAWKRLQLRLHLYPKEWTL
The arrangement: bioluminescence intracellular calcium release assay, mt-clytin II with coelenterazine, Gα16-gust44 co-expressed. Here is the method: as §1

Test [3] deals with T3, TAS2R5 (Homo sapiens, UniProt Q9NYW4).
T3 sequence (Q9NYW4 1-299): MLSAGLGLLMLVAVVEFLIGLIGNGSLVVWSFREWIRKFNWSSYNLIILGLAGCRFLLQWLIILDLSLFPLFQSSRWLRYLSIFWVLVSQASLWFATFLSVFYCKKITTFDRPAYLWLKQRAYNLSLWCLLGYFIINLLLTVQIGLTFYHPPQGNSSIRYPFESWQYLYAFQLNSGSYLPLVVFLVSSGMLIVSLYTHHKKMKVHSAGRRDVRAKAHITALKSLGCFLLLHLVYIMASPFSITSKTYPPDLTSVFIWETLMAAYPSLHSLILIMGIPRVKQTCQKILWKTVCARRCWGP
The arrangement: bioluminescence intracellular calcium release assay, mt-clytin II with coelenterazine, Gα16-gust44 co-expressed. The conditions noted are these: 293AD cells. Here is the method:
as §1

In test [4] the target is T4, TAS2R46 (Homo sapiens, UniProt P59540).
T4 sequence (P59540 1-309): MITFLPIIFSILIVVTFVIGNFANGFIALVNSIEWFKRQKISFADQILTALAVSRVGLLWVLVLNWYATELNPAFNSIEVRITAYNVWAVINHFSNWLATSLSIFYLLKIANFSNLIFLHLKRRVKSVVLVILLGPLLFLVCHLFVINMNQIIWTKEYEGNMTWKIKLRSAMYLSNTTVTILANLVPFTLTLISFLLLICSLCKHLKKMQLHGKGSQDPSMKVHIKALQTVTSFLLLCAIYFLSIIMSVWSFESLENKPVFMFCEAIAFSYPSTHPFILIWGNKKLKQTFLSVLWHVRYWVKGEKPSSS
On the set-up: species or system 293AD; bioluminescence intracellular calcium release assay, mt-clytin II with coelenterazine, Gα16-gust44 co-expressed. Here is the method:
(§2) The bioluminescence-based assay was used to characterize the functional properties of various human TAS2Rs. For each TAS2R, one or more of its cognate agonists were tested against either the AD-293 or 293AD cell line, or both. Both cell lines were used because of their stronger adherent properties, which facilitate media changes on the day of the FLIPR assay. However, because both cell lines are generated differently, some disparities in gene expression capacities due to a myriad of factors could be reasonably expected. Consequently, some TAS2Rs may be well expressed in one cell line but not the other, and the ability of each cell line to express a particular TAS2R needs to be empirically evaluated. […] However, deviations between our experimental and published potency values for some ligands (i.e. TAS2R4: stevioside; TAS2R7: Mg^2+, Mn^2+, Zn^2+) were observed, which could be attributed to the use of a different assay format, readout and processing parameters, use of different cell lines with resultant potential differences in TAS2R expression levels, and quality and methodological differences in ligand preparations. […] A strength of the bioluminescence-based TAS2R assay is its capacity to generate greater assay spans than that of fluorescence-based assays, which could be largely attributed to the utilization of mt-clytin II as the calcium reporter. […]

Test [5] deals with T4, TAS2R46. The arrangement: species or system AD-293; bioluminescence intracellular calcium release assay, mt-clytin II with coelenterazine, Gα16-gust44 co-expressed. Here is the method: as §2

A word on the EC50: it is the concentration needed to bring the measured effect to its halfway point. In the case of `CCN(CC)CCCC(C)Nc1ccnc2cc(Cl)ccc12` (stereo not drawn) [Chloroquine diphosphate], the EC50 in test [1] worked out at 45 ± 14 µM.
Consider `O=C(O[C@@H]1Cc2c(O)cc(O)cc2O[C@@H]1c1cc(O)c(O)c(O)c1)c1cc(O)c(O)c(O)c1` [Epigallocatechin gallate], for which the EC50 in test [2] (293AD cells) is 141 ± 44 µM; in test [2] (AD-293 cells), 362 ± 81 µM; in test [3] it was 47 ± 11 µM.
In the case of `O=C1C[C@@H]2OCC=C3CN4CC[C@]56c7ccccc7N1[C@H]5[C@H]2[C@H]3C[C@H]46` [Strychnine], the EC50 in test [4] was 0.309 ± 0.073 µM; in test [5], 1.2 µM.
